# Test results as given in publication PMC6273304, “Efficient Double Suzuki Cross-Coupling Reactions of 2,5-Dibromo-3-hexylthiophene: Anti-Tumor, Haemolytic, Anti-Thrombolytic and Biofilm Inhibition Studies” (Molecules, 2016).
# Where “and” joins values, the source holds several entries; their conditions need not be identical. Identical values can stand only once.
# Key:
# MCF-7 cells = test: MTT assay, anti-tumor activity against MCF-7 cells; assay type: cell-based, human
# From the text: (§1) Metastasis is the major reason of morbidity and mortality in cancer disease. In breast cancer patients, several tissues involving liver, lung, bone, and lymph node are affected by tumor involvement. The anti-tumor activities of all newly-synthesized thiophene derivatives were screened for human breast cancer cell lines 4T1, MDA-MB-231, and MCF-7 using MTT (3-(4,5-dimethylthiazol-2-yl)-2,5-diphenyltetrazolium bromide) assay in vitro. Cisplatin was used as a standard anti-tumor drug in this assay. […] The highest activity of 3h might have been due to the presence of electron-donating methylthio group (-SMe) on aromatic phenyl ring.
# The anti-tumor activity of these compounds was also studied for MCF-7 breast cancer cell line.
# (§2) In brief, 0.8 × 10^5 cells/mL were seeded in 96-well plates and were incubated in a humidified CO2 incubator overnight. The following day, serial dilution of the samples was performed with various concentration. The plates were left to incubate with the treatment for 72 h. After the designated time, 20 μL of MTT (5 mg/mL) was inserted into each of the wells and the cells were further incubated for an additional 4 h. Later, the media and the treatment were removed from all of the wells and 100 μL of DMSO was added. The absorbance plates were then read using a spectrophotometer (BioTek) at 570 nm.
# 4T1 cells = test: MTT assay, anti-tumor activity against 4T1 cells; assay type: cell-based; details: 72 h treatment
# From the text: as §1, §2
# MDA-MB-231 cells = test: MTT assay, anti-tumor activity against MDA-MB-231 cells; assay type: cell-based, human; details: 72 h treatment
# From the text: as §1
# The anti-tumor activity of all newly-synthesized compounds was also examined against MDA-MB-231 breast cancer cells. […] It is likely possible that the electron-withdrawing iodo groups (-I) attached with phenyl ring might have been affecting the cytotoxicity of MDA-MB-231 cells.
# as §2
# human blood clots = test: Anti-thrombolytic activity (in vitro clot lysis); details: 100 μL sample, 90 min at 37 °C
# From the text: Cerebral Venous Sinus Thrombosis (CVST) is a central nervous disorder, which is a common disease caused by thrombophilia and […]. This fatal disease has been treated by the application of intravenous heparin and warfarin drugs. Now a days, this disease is usually cured by thrombolytic drugs, such as urokinase and streptokinase, which are playing a significant effect in the cure of CVST [25]. In the present study, we have explored the potential of our newly synthesized thiophene derivatives for anti-thrombolytic activity by the procedure reported elsewhere. […] This highest value of % lysis achieved by 3g can be attributed to the electron-withdrawing fluorine and chlorine groups on the aromatic ring.
# The anti-thrombolytic activity of all newly-synthesized thiophene derivatives was investigated by following the previously-reported method. In a typical procedure, the sterile eppendorfs were filled with fresh venous blood taken from the human volunteers. The eppendorf tubes, which contained human blood (500 μL), were placed for 45 min at 37 °C to allow for clot formation. Once the clots were formed, the known volumes (100 μL) of sample solutions (3a–i) were added in eppendorfs having no serum in the blood samples. Basically, the serum was removed from blood prior to the clot formation stage. After the addition of samples, the tubes were incubated again for 90 min at 37 °C. For each experiment, the compound Streptokinase was used as a positive control, while water was used as a negative control. The anti-thrombolytic activity of newly-synthesized products was determined at percentage.
# Escherichia coli = test: Biofilm inhibition assay; assay type: cell-based; details: E. coli, 50 μM/mL, 24 h at 37 °C
# Description: Pathogenic micro-organisms form a biofilm, which mainly causes morbidness and mortality. This biofilm consists of conglomerations of bacterial cells and secured by a polymeric substance created by itself. Several fatal infections are caused by biofilms and they are difficult to remove. The inhibition activities of all newly-synthesized thiophene derivatives (3a–i) against biofilm formation were assayed using the previously-reported method. The experimentally-determined biofilm inhibition values for all compounds are expressed in Table 3. A selected strain of Gram-negative bacteria (Escherichia coli) was used to determine the anti-bacterial activity of all new derivatives at concentration of 50 μM/mL. […] A likely possible cause of this high activity can be attributed to the electron-withdrawing substituents attached with the aromatic phenyl ring of 3d, which might have been playing a significant role for increasing the anti-bacterial activity of this compound against Gram-negative bacteria. We believe that our newly-developed thiophene-based compounds with high % inhibition values can be potentially used to control the formation of biofilms.
# The newly-synthesized thiophene derivatives were assayed for their biofilm inhibition activity using the previously reported method. For these measurements, the solutions of the thiophene derivatives were prepared in ethyl acetate. In brief, about 100 μL of sample solutions (3a–i) and 100 μL nutrient broth (Oxoid, Hampshire, UK) along with bacterial suspension (20 μL) were placed on the wells of 96-well sterile culture plates. Rifampicin was used as a positive control, while nutrient broth was used as a negative control for these biofilm inhibition activity measurements. The plates were covered and incubated for 24 h at 37 °C. Each plate was washed three times by using 220 μL of phosphate-buffered solution. After washing, each plate was shaken strongly in order to remove the non-adherent bacteria. 220 μL of 99% methanol solution was used to fix the remaining bacteria from these plates, followed by the drying in hot oven. After drying, the plates were stained with […] of crystal violet with a concentration of […] for five minutes. The excess stain from these plates was removed simply by using tap water. About 220 µL glacial acetic acid (33% concentration) was used to remove the dye attached with the cells. Each well was examined for OD value with the help of the micro-plate reader (BioTek, Winooski, VT, USA) at 630 nm.
# red blood cells (RBCs) = test: Haemolytic activity; assay type: cell-based; details: 30 min, pH 7.4
# From the text: The newly-synthesized molecules (3a–i) were also examined for their hemolytic activity, following the method reported by Powell and co-workers. The standard drug Triton X-100 was employed as a reference in these measurements. […] Ding et al. reported that chloro group-containing molecules display facile haemolytic activity as compared with those compounds having a methyl group substitution on the ring.
# The hemolytic activity of newly synthesized thiophene derivatives was examined by following the previously-reported method. For these measurements, the solutions of the thiophene derivatives were prepared in ethyl acetate. In brief, about 3 mL of newly-obtained heparinized blood was taken in 15 mL sterile Falcon tube, which was later centrifuged for 5 min at 850 rpm. The supernatant was removed and washed three times and was later placed at room temperature for 30 min. In order to wash the thick pellet, 5 mL of ice-cold (4 °C) phosphate-buffered saline (PBS) having pH 7.4 was employed. The same PBS buffer (20 mL) was used to maintain the cells over longer periods of time. The erythrocytes present in cells were measured and diluted with PBS buffer. Approximately 180 µL of this suspension of erythrocytes was taken along with 20 µL of sample solution (3a–i) in eppendorfs. These eppendorfs were incubated thermally at human body temperature for 30 min, followed by centrifuging at 1310 rpm again for 5 min. After significant centrifugation, the supernatant was removed and diluted with phosphate-buffered saline (900 µL) and was later placed on ice. Each sample solution (200 µL) was kept in 96-well culture plates. For each measurement, phosphate-buffered saline and 0.1% Triton X-100 were employed as negative and positive control, respectively. A quant instrument was used to observe the absorbance of all sample solutions at 576 nm.
# [1] = Homo sapiens, MCF7, 72 h treatment
Molecule,IC50 (MCF-7 cells; 72 h treatment),IC50 (4T1 cells) [µM],IC50 (MDA-MB-231 cells),IC50 (MCF-7 cells; [1]) [µM],"IC50 (4T1 cells; 4T1, 72 h) [µM]","% Lysis (clot lysis, anti-thrombolytic activity) (human blood clots)",IC50 (MDA-MB-231 cells; Homo sapiens) [µM],inhibition at 50 µM (Escherichia coli) [%],% Lysis of RBC (red blood cells (RBCs)) [%]
"N.N.[Cl][Pt][Cl] [Cisplatin, reference compound]",48 µM and 48.3 µM,21.5,29 µM and 29.1 µM,–,–,–,–,–,–
"CCCCCCc1cc(-c2ccc(SC)cc2)sc1-c1ccc(SC)cc1 [Compound 3h, 3-Hexyl-2,5-bis(4-(methylthio)phenyl)thiophene]",–,16.1 ± 0.09,–,35.1 ± 3.8,16,0.27 ± 0.021%,29.2 ± 0.04,27.12 ± 0.039,–
"CCCCCCc1cc(-c2cc(C)cc(C)c2)sc1-c1cc(C)cc(C)c1 [Compound 3b, 2,5-Bis(3,5-dimethylphenyl)-3-hexylthiophene]",–,–,–,33.8 ± 0.29,30 ± 0.81,25.32 ± 0.092%,32.2 ± 2.73,59.48 ± 0.073,4.54 ± 0.014
"CCCCCCc1cc(-c2ccc(Cl)cc2)sc1-c1ccc(Cl)cc1 [Compound 3d, 2,5-Bis(4-chlorophenyl)-3-hexylthiophene]",–,–,–,27.5 ± 0.67,22.8 ± 0.04,2.04 ± 0.091%,24.8 ± 0.56,78.85 ± 0.057,6.66 ± 0.057
"CCCCCCc1cc(-c2cc(F)cc(F)c2)sc1-c1cc(F)cc(F)c1 [Compound 3f, 2,5-Bis(3,5-difluorophenyl)-3-hexylthiophene]",–,–,–,42.8 ± 2.87,31.5 ± 1.1,12.34 ± 0.073%,28.1 ± 0.72,69.68 ± 0.049,–
"CCCCCCc1cc(-c2cccc(C(C)=O)c2)sc1-c1cccc(C(C)=O)c1 [Compound 3i, 2,5-Bis(3-acetylphenyl)-3-hexylthiophene]",–,–,–,36.8 ± 0.03,23.2 ± 0.08,1.84 ± 0.083%,36.8 ± 0.82,76.86 ± 0.083,–
"CCCCCCc1cc(-c2ccc(F)c(Cl)c2)sc1-c1ccc(F)c(Cl)c1 [Compound 3g, 2,5-Bis(3-chloro-4-fluorophenyl)-3-hexylthiophene]",–,–,–,44 ± 0.17,22 ± 0.57,53.12% and 53.12 ± 0.063%,26.2 ± 0.28,75.53 ± 0.041,15.57 ± 0.034
"CCCCCCc1cc(-c2ccc(I)cc2)sc1-c1ccc(I)cc1 [Compound 3e, 3-Hexyl-2,5-bis(4-iodophenyl)thiophene]",–,–,–,91.4 ± 0.59,21.5 ± 3.71,32.42 ± 0.046%,22.9 ± 3.8,73.8 ± 0.032,3.62 ± 0.024
Streptokinase [reference compound],–,–,–,–,–,100%,–,–,–
"CCCCCCc1cc(-c2ccc(OC)cc2)sc1-c1ccc(OC)cc1 [Compound 3c, 3-Hexyl-2,5-bis(4-methoxyphenyl)thiophene]",–,–,–,35.7 ± 0.09,29.5 ± 4.3,41.12% and 41.12 ± 0.035%,40 ± 0.41,73.27 ± 0.023,5.80 ± 0.045
"CCCCCCc1cc(-c2ccc(C)cc2)sc1-c1ccc(C)cc1 [Compound 3a, 2,5-Bis(4-methylphenyl)-3-hexylthiophene]",–,–,–,26.2 ± 0.7,30.5 ± 0.08,16.25 ± 0.028%,36.8 ± 0.21,62.5 ± 0.038,–
